Source: patent US20200032271A1, “COMBINATION THERAPY WITH LIPOSOMAL ANTISENSE OLIGONUCLEOTIDES” (Bio-Path Holdings, Inc., priority 2016, published 2020)
Marks after values point to notes of the source that are not given here. [PEt] = P-ethoxy (ethyl phosphotriester) internucleoside linkage

Test: Adverse events in study 2003-0578 (NCI CTCAE grading)
[1] = MDS at enrollment (n = 4), all treatment groups

BP1001: liposome-incorporated P-ethoxy antisense oligodeoxynucleotide (5′-ATATTTGGCGATGGCTTC-3′, SEQ ID NO: 1) specific to grb2 mRNA, in neutral DOPC liposomes (DNA, all [PEt], methylation of C not given here; incorporated in neutral DOPC liposomes)
Hyponatremia ≥Grade 3, number of patients [1]: 0 | Hypotension ≥Grade 3, number of patients [1]: 0 | Hypovolemia ≥Grade 3, number of patients [1]: 0 | Hypoxia ≥Grade 3, number of patients [1]: 0 | Investigations ≥Grade 3, number of patients [1]: 0 | Leukocytosis ≥Grade 3, number of patients [1]: 0 | Metabolism and nutritional disorders ≥Grade 3, number of patients [1]: 0 | Multi-organ failure ≥Grade 3, number of patients [1]: 0 | Musculoskeletal and connective tissue disorders ≥Grade 3, number of patients [1]: 0 | Neoplasms benign, malignant, and unspecified (incl. cysts and polyps) ≥Grade 3, number of patients [1]: 0 | Patients with AEs ≥Grade 3, number of patients [1]: 1 | Penile Pain ≥Grade 3, number of patients [1]: 0 | Platelet count decreased ≥Grade 3, number of patients [1]: 0 | Pleural Effusions ≥Grade 3, number of patients [1]: 0 | Pneumonia ≥Grade 3, number of patients [1]: 0 | Psychiatric disorders ≥Grade 3, number of patients [1]: 0 | Renal and urinary disorders ≥Grade 3, number of patients [1]: 0 | Reproductive system and breast disorders ≥Grade 3, number of patients [1]: 0 | Respiratory distress ≥Grade 3, number of patients [1]: 0 | Respiratory failure ≥Grade 3, number of patients [1]: 0 | Respiratory, thoracic, and mediastinal disorders ≥Grade 3, number of patients [1]: 0 | Tumor lysis syndrome ≥Grade 3, number of patients [1]: 0 | Vascular disorders ≥Grade 3, number of patients [1]: 0 | Blood and lymphatic system disorders ≥Grade 3, total events (all patients (N = 39)): 12 | Blood and lymphatic system disorders ≥Grade 3, total patients (all patients (N = 39)): 11 | Cardiac disorders ≥Grade 3, total events (all patients (N = 39)): disorders (3/3) | Cardiac disorders ≥Grade 3, total patients (all patients (N = 39)): disorders (3/3) | General disorders and administration site conditions ≥Grade 3, total events (all patients (N = 39)): (5/5) | General disorders and administration site conditions ≥Grade 3, total patients (all patients (N = 39)): (5/5) | Hepatobiliary disorders ≥Grade 3, total events (all patients (N = 39)): disorders (2/2) | Hepatobiliary disorders ≥Grade 3, total patients (all patients (N = 39)): disorders (2/2) | Investigations ≥Grade 3, total events (all patients (N = 39)): 3 | Investigations ≥Grade 3, total patients (all patients (N = 39)): 2 | Metabolism and nutritional disorders ≥Grade 3, total events (all patients (N = 39)): 19 | Metabolism and nutritional disorders ≥Grade 3, total patients (all patients (N = 39)): 12 | Neoplasms benign, malignant, and unspecified (incl. cysts and polyps) ≥Grade 3, total events (all patients (N = 39)): polyps) (2/2) | Neoplasms benign, malignant, and unspecified (incl. cysts and polyps) ≥Grade 3, total patients (all patients (N = 39)): polyps) (2/2) | Patients with AEs ≥Grade 3, total events (all patients (N = 39)): 91 | Patients with AEs ≥Grade 3, total patients (all patients (N = 39)): 28 | Renal and urinary disorders ≥Grade 3, total events (all patients (N = 39)): disorders (4/4) | Renal and urinary disorders ≥Grade 3, total patients (all patients (N = 39)): disorders (4/4) | Respiratory, thoracic, and mediastinal disorders ≥Grade 3, total events (all patients (N = 39)): disorders (7/7) | Respiratory, thoracic, and mediastinal disorders ≥Grade 3, total patients (all patients (N = 39)): disorders (7/7) | Vascular disorders ≥Grade 3, total events (all patients (N = 39)): disorders (2/2) | Vascular disorders ≥Grade 3, total patients (all patients (N = 39)): disorders (2/2) | AML progression, number of patients (monotherapy 5 mg/m^2 (n = 13)): 10 | Abdominal Pain ≥Grade 3, number of patients (monotherapy 5 mg/m^2 (n = 13)): 0 | Acidosis ≥Grade 3, number of patients (monotherapy 5 mg/m^2 (n = 13)): 2 | Acute kidney injury ≥Grade 3, number of patients (monotherapy 5 mg/m^2 (n = 13)): 3 | Asthenia ≥Grade 3, number of patients (monotherapy 5 mg/m^2 (n = 13)): 1 | Back Pain ≥Grade 3, number of patients (monotherapy 5 mg/m^2 (n = 13)): 0 | Blood and lymphatic system disorders ≥Grade 3, number of patients (monotherapy 5 mg/m^2 (n = 13)): 5 | Cardiac disorders ≥Grade 3, number of patients (monotherapy 5 mg/m^2 (n = 13)): 3 | Cataract ≥Grade 3, number of patients (monotherapy 5 mg/m^2 (n = 13)): 0 | Dyspnea ≥Grade 3, number of patients (monotherapy 5 mg/m^2 (n = 13)): 0 | Extremity Lower Edema ≥Grade 3, number of patients (monotherapy 5 mg/m^2 (n = 13)): 0 | Eye disorders ≥Grade 3, number of patients (monotherapy 5 mg/m^2 (n = 13)): 0 | Febrile neutropenia ≥Grade 3, number of patients (monotherapy 5 mg/m^2 (n = 13)): 2 | Gastrointestinal disorders ≥Grade 3, number of patients (monotherapy 5 mg/m^2 (n = 13)): 0 | General disorders and administration site conditions ≥Grade 3, number of patients (monotherapy 5 mg/m^2 (n = 13)): 3 | Hallucinations ≥Grade 3, number of patients (monotherapy 5 mg/m^2 (n = 13)): 0 | Heart failure ≥Grade 3, number of patients (monotherapy 5 mg/m^2 (n = 13)): 3 | Hepatic failure ≥Grade 3, number of patients (monotherapy 5 mg/m^2 (n = 13)): 1 | Hepatobiliary disorders ≥Grade 3, number of patients (monotherapy 5 mg/m^2 (n = 13)): 1 | Hypocalcemia ≥Grade 3, number of patients (monotherapy 5 mg/m^2 (n = 13)): 1 | Hypoglycemia ≥Grade 3, number of patients (monotherapy 5 mg/m^2 (n = 13)): 2 | Hypokalemia ≥Grade 3, number of patients (monotherapy 5 mg/m^2 (n = 13)): 1 | Hyponatremia ≥Grade 3, number of patients (monotherapy 5 mg/m^2 (n = 13)): 1 | Hypotension ≥Grade 3, number of patients (monotherapy 5 mg/m^2 (n = 13)): 2 | Hypovolemia ≥Grade 3, number of patients (monotherapy 5 mg/m^2 (n = 13)): 0 | Hypoxia ≥Grade 3, number of patients (monotherapy 5 mg/m^2 (n = 13)): 1 | Investigations ≥Grade 3, number of patients (monotherapy 5 mg/m^2 (n = 13)): 1 | Leukocytosis ≥Grade 3, number of patients (monotherapy 5 mg/m^2 (n = 13)): 3 | Metabolism and nutritional disorders ≥Grade 3, number of patients (monotherapy 5 mg/m^2 (n = 13)): 12 | Multi-organ failure ≥Grade 3, number of patients (monotherapy 5 mg/m^2 (n = 13)): 2 | Musculoskeletal and connective tissue disorders ≥Grade 3, number of patients (monotherapy 5 mg/m^2 (n = 13)): 0 | Neoplasms benign, malignant, and unspecified (incl. cysts and polyps) ≥Grade 3, number of patients (monotherapy 5 mg/m^2 (n = 13)): 0 | Patients with AEs ≥Grade 3, number of patients (monotherapy 5 mg/m^2 (n = 13)): 10 | Penile Pain ≥Grade 3, number of patients (monotherapy 5 mg/m^2 (n = 13)): 0 | Platelet count decreased ≥Grade 3, number of patients (monotherapy 5 mg/m^2 (n = 13)): 1 | Pneumonia ≥Grade 3, number of patients (monotherapy 5 mg/m^2 (n = 13)): 0 | Psychiatric disorders ≥Grade 3, number of patients (monotherapy 5 mg/m^2 (n = 13)): 0 | Renal and urinary disorders ≥Grade 3, number of patients (monotherapy 5 mg/m^2 (n = 13)): 3 | Reproductive system and breast disorders ≥Grade 3, number of patients (monotherapy 5 mg/m^2 (n = 13)): 0 | Respiratory distress ≥Grade 3, number of patients (monotherapy 5 mg/m^2 (n = 13)): 1 | Respiratory failure ≥Grade 3, number of patients (monotherapy 5 mg/m^2 (n = 13)): 2 | Respiratory, thoracic, and mediastinal disorders ≥Grade 3, number of patients (monotherapy 5 mg/m^2 (n = 13)): 2 | Tumor lysis syndrome ≥Grade 3, number of patients (monotherapy 5 mg/m^2 (n = 13)): 3 | Vascular disorders ≥Grade 3, number of patients (monotherapy 5 mg/m^2 (n = 13)): 2 | AML progression, number of patients (monotherapy 10 mg/m^2 (n = 6)): 4 | Abdominal Pain ≥Grade 3, number of patients (monotherapy 10 mg/m^2 (n = 6)): 0 | Acidosis ≥Grade 3, number of patients (monotherapy 10 mg/m^2 (n = 6)): 1 | Acute kidney injury ≥Grade 3, number of patients (monotherapy 10 mg/m^2 (n = 6)): 0 | Asthenia ≥Grade 3, number of patients (monotherapy 10 mg/m^2 (n = 6)): 0 | Back Pain ≥Grade 3, number of patients (monotherapy 10 mg/m^2 (n = 6)): 0 | Blood and lymphatic system disorders ≥Grade 3, number of patients (monotherapy 10 mg/m^2 (n = 6)): 2 | Cardiac disorders ≥Grade 3, number of patients (monotherapy 10 mg/m^2 (n = 6)): 0 | Cataract ≥Grade 3, number of patients (monotherapy 10 mg/m^2 (n = 6)): 0 | Dyspnea ≥Grade 3, number of patients (monotherapy 10 mg/m^2 (n = 6)): 0 | Extremity Lower Edema ≥Grade 3, number of patients (monotherapy 10 mg/m^2 (n = 6)): 0 | Eye disorders ≥Grade 3, number of patients (monotherapy 10 mg/m^2 (n = 6)): 0 | Febrile neutropenia ≥Grade 3, number of patients (monotherapy 10 mg/m^2 (n = 6)): 1^a | Gastrointestinal disorders ≥Grade 3, number of patients (monotherapy 10 mg/m^2 (n = 6)): 0 | General disorders and administration site conditions ≥Grade 3, number of patients (monotherapy 10 mg/m^2 (n = 6)): 1 | Hallucinations ≥Grade 3, number of patients (monotherapy 10 mg/m^2 (n = 6)): 0 | Heart failure ≥Grade 3, number of patients (monotherapy 10 mg/m^2 (n = 6)): 0 | Hepatic failure ≥Grade 3, number of patients (monotherapy 10 mg/m^2 (n = 6)): 1 | Hepatobiliary disorders ≥Grade 3, number of patients (monotherapy 10 mg/m^2 (n = 6)): 1 | Hypocalcemia ≥Grade 3, number of patients (monotherapy 10 mg/m^2 (n = 6)): 0 | Hypoglycemia ≥Grade 3, number of patients (monotherapy 10 mg/m^2 (n = 6)): 0 | Hypokalemia ≥Grade 3, number of patients (monotherapy 10 mg/m^2 (n = 6)): 1 | Hyponatremia ≥Grade 3, number of patients (monotherapy 10 mg/m^2 (n = 6)): 0 | Hypotension ≥Grade 3, number of patients (monotherapy 10 mg/m^2 (n = 6)): 0
